This is an account of results in US20250101104A1, “BISPECIFIC MOLECULE WITH TUNABLE AFFINITY TO A TARGETED ANTIGEN” (MABSWITCH INC., priority 2022, published 2025).

Series [1] relates to CD3 positive Jurkat cells. Nature of the series: Switch activity on living cells, flow cytometry. The conditions noted are these: incubated with the switch peptide variant SEQ ID NO:2. It is filed as cell-based. The procedure:
The bispecific switchable anti-CD3/antiCD33 Fc fusion protein product MS42-13 is further tested for switch activity in the presence and absence of switch linkers on living cells using flow cytometry. For the cytofluorometry analysis, CD3 positive Jurkat cells (ATCC, Clone E6-1), cultivated in suspension culture as described by the provider, are seeded in FACS tubes and washed with 3 mL PBS supplemented with 2 mM EDTA and 2% (v/v) FCS (centrifugation for 5 min at 500×g and 4-C). Cells are incubated with […] of various dilutions of scFv-Fc bispecific antibody constructs (between 10 ng/mL and […]) for 1 h on ice. Cells are washed two times with 3 mL PBS (centrifugation for 5 min at 500×g and 4-C) and are incubated with 100 μL Fc-fusion of CD33 that carried an AviTag™ (biotinylated) (BPS Bioscience, Inc., San Diego, USA) (Fc-specific) for 1 h on ice in the dark in either the presence or absence of the switch peptides (1 μM or 10 μM). […] A minimum of 10^4 events are analyzed per sample. Analysis is performed with CXP analysis 2.2 software (Beckman Coulter, Fullerton, CA) and Mean Fluorescence Intensities (MFI) are determined using Flowjo™ software (Treestar).

Series [2] addresses T1, Human CD3 epsilon&CD3 gamma Heterodimer Protein (Homo sapiens, UniProt P07766).
T1 construct: purchased Biorbyt Ltd, Cambridge, United Kingdom
Put plainly: Bispecific functionality ELISA (captured CD3, detection with biotinylated CD33 Fc-fusion). It is filed as binding. The settings on record: affinity to the CD3 antigen. The procedure: Bispecific functionality is tested in an ELISA using soluble Human CD3 epsilon&CD3 gamma Heterodimer Protein (Biorbyt Ltd, Cambridge, United Kingdom) that is captured to the ELISA plate surface and an Fc-fusion of CD33 that carried an AviTag™ (biotinylated) (BPS Bioscience, Inc., San Diego, USA) detected by HRP conjugated streptavidin (BPS Bioscience, Inc., San Diego, USA). Dilution curves of the protein A purified bispecific scFv-Fc constructs are compared. For control, a bispecific scFv-Fc construct wherein the linker between the OKT3 variable heavy chain sequence to the OKT3 variable light chain sequence is a non-switchable variant (GGGGSGGGGSGG GGS (SEQ ID NO: 365)) is constructed, produced and purified as described above.

The test system of the next series is CD123+KG-1a. The settings on record: cited from earlier work.
For series [3], the system named is circulating CD123^+ cells. The settings on record: cited from earlier work.
The subject of the next series is TF-1 AML cell lines. The conditions noted are these: cited from earlier work.
For series [4] the following is noted: mice; cited from earlier work.

T1 sequence (P07766 23-126 limits assumed): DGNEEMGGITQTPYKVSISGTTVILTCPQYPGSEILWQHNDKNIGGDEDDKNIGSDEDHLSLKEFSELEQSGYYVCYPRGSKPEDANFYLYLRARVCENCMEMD
T1 sequence (P09693 23-116 partner limits assumed): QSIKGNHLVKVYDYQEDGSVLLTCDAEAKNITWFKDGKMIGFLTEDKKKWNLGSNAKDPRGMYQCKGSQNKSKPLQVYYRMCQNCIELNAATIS

Turning to “MS42-13: switchable bispecific anti-CD3/anti-CD33 scFv-Fc fusion: OKT3 scFv with calmodulin switch linker, gemtuzumab scFv, knob-into-hole Fc (SEQ ID NO:366, 367)”, the “increase of half-maximal binding compared to the construct with the non-switchable linker (SEQ ID NO:365)” value in series [1] is no more than 21.3 fold. The “drop in EC50 compared to the construct with the non-switchable wild type Gly-Ser linker” value in series [2] was found to be 24.6 fold.
In the case of “XmAb14045: Fc domain-containing bispecific antibody stimulating T cell-mediated killing of CD123+ cells”, the “EC50 of T cell-mediated killing” value in the series on CD123+KG-1a and with TF-1 AML cell lines was less than 1 ng/mL in each case. For the same substance, the T cell activation result in series [3] (cynomolgus monkeys) is listed as “strongly activated T cells”. Also, the “depletion of circulating CD123+ cells including basophils and plasmacytoid dendritic cells” value in series [3] (within 1 hour of administration) is “over 99%”. Besides, in series [4], the serum half-life is given as 6.2 days.
